# Values quoted from earlier work as cited in patent US20050037366A1, “Individual drug safety” (priority 2003, published 2005).
# Entries after “also recorded” stand apart in the source; their conditions may differ.
# Tests used:
# [1] = men with hormone-refractory prostate cancer
# [2] = rats
# [3] = in vivo
# ABCC2 (MRP2, cMOAT) = molecular target: T1, ABCC2 (MRP2, cMOAT) (Rattus norvegicus, UniProt Q63120); conditions: rats; ABCC2-mediated mechanisms
# T1 construct: host or cells: rats (in vivo, liver canalicular membrane)
# T1 sequence (Q63120 whole entry): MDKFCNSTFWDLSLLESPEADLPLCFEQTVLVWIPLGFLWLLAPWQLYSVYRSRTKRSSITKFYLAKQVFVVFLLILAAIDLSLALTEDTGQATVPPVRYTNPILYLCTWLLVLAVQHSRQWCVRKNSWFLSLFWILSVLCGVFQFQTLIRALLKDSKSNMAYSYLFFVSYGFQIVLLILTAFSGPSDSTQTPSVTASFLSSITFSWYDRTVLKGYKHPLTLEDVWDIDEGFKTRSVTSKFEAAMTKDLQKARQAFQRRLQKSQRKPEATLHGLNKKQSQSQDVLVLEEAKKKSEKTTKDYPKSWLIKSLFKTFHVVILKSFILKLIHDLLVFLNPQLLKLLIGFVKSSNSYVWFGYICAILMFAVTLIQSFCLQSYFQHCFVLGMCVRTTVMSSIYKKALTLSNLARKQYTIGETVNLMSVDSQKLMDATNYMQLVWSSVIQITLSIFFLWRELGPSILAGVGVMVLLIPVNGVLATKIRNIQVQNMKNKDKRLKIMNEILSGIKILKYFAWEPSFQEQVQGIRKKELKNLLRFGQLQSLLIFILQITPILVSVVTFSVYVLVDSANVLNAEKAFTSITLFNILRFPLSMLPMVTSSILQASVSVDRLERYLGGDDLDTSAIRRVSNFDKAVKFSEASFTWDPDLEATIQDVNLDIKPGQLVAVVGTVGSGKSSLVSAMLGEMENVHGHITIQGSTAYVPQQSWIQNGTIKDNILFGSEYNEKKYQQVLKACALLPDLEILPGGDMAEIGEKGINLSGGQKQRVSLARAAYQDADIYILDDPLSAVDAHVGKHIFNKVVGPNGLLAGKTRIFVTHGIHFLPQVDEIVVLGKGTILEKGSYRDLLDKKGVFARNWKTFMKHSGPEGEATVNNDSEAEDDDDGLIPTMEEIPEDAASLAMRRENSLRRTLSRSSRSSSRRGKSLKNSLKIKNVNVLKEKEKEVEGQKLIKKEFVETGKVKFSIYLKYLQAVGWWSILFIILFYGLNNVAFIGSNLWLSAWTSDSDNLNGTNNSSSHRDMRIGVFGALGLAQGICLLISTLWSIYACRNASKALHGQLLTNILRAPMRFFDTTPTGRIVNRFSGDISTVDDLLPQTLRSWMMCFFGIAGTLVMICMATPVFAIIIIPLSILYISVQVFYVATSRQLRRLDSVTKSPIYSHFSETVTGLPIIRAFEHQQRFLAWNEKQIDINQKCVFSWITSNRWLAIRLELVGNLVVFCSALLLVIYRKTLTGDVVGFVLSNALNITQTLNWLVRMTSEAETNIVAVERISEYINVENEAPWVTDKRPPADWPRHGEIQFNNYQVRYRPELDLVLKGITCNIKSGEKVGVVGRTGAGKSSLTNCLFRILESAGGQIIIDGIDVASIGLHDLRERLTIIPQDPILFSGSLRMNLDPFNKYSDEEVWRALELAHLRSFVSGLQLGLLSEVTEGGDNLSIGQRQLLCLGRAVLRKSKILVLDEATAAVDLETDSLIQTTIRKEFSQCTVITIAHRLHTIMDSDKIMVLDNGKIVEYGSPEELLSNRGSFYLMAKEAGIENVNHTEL
structure (smiles),measurement,setting,value
CCCCN(CCCC)C(=O)CN1C[C@H](c2ccc3c(c2)OCO3)[C@@H](C(=O)O)[C@@H]1c1ccc(OC)cc1 [Atrasentan],ADRs in phase II study,[1],"headache, peripheral edema and rhinitis"
CCCC[C@@H](NC(=O)[C@@H](Cc1cn(C(=O)OC)c2ccccc12)NC(=O)[C@H](CC(C)(C)C)NC(=O)N1[C@H](C)CCC[C@@H]1C)C(=O)O [BQ-788],cerebral blood flow,[2],decrease of cerebral blood flow
COc1ccccc1Oc1c(NS(=O)(=O)c2ccc(C(C)(C)C)cc2)nc(-c2ncccn2)nc1OCCO [Bosentan],ADR: liver injury,[3],can lead to liver injury; also recorded: can induce cholestatic liver injury
same,effect on Bsep-mediated canalicular bile salt transport,Bsep (ABCB 11),inhibition of Bsep-mediated canalicular bile salt transport
same,canalicular bile formation,"ABCC2 (MRP2, cMOAT)",alters canalicular bile formation
